Source: patent publication US4515767A, “Radioactive metals complexed with phosphonate derivatives of dicyclopentadienebis(methylamine)” (The Dow Chemical Company, priority 1983, dated 1985)

Columns and labels:
[1] = Uptake in end bone and midbone of femur in anesthetized rats, NaI scintillation counting (Table II); format: in vivo; conditions: vein, 120 minutes; for % Dose/gram End Bone: femur ends; for % Dose/gram Midbone: femur mid-section; for End-/Mid-bone: femur, ratio of end bone to midbone
Protocol: Fifty μl of the complex prepared in Example 1 was injected into the vein of anesthetized laboratory rats. After 120 minutes the animals were killed and the femurs removed. The ends of the bones were cut away from the mid-section and each section was weighed and analyzed separately. The amount of activity in the bone sections was quantitated using NaI scintillation counting. The results were compared to those of complexes prepared from commercial diphosphonate kits (Table II).

[2] = after intravenous administration; cited from earlier work

| Compound | % Dose/gram End Bone [1] [% Dose/gram] | % Dose/gram Midbone [1] [% Dose/gram] | End-/Mid-bone [1] | accumulation by bone (in words) [2] |
| --- | --- | --- | --- | --- |
| CC(O)(P(=O)(O)O)P(=O)(O)O [EHDP, hydroxyethanediphosphosphonate] | 3.40 | 1.46 | 2.33 |  |
| O=P(O)(O)OP(=O)(O)O [PYP, pyrophosphate] | 3.50 | 1.78 | 1.97 |  |
| [85Sr] [Sr-85, Strontium-85] |  |  |  | rapidly accumulated by bone |
| methylenediphosphonate [MDP] | 3.95 | 1.90 | 2.08 |  |
